Laboratory results: patent US20230190761A1, “METHYLENE BLUE STABILIZED MRNA COMPOSITIONS” (ModernaTX, Inc., priority 2020, published 2023)
Values joined by “and” are separate entries in the source; they are usually repeats but may differ in a detail not shown here. Identical values can stand only once. “Also recorded” adds a separate entry of the source.

Experiments:
mRNA-LNP formulations = assay: mRNA-LNP stability in differing buffer conditions with or without methylene blue (fragmentation analysis and RP-HPLC); format: physicochemical; details: 150 mM NaCl, 2 mM MB
Experimental: This example discusses stabilization effects of methylene blue on mRNA-LNP formulations in varying buffer conditions. To match experiments conducted on lyophilized products, which were reconstituted in saline, and refrigerated/frozen formulations in TRIS-Sucrose, two buffers across the range of pH were tested. Sodium chloride was added to mimic saline, as it can cause methylene blue to crash out of solution.

[1] = system: lipid nanoparticles (LNP); assay: Permeation of phenothiazinium dyes into LNP and binding to encapsulated mRNA; format: physicochemical; details: optical spectroscopic studies, Cryo-EM, DLS, isothermal titration calorimetry
Text: This example describes phenothiazinium dyes which interact with mRNA and their impact on LNP formulations. […] These interpretations were made based on extensive optical spectroscopic studies, Cryo-EM, dynamic light scattering (DLS) and isothermal titration calorimetry studies.

[2] = system: mRNA encapsulated within LNPs; assay: mRNA-LNP stability with thionine or methylene blue, main peak purity by fragmentation analysis; format: physicochemical; details: mRNA-LNP with incremental dye 0.01-1.5 mM, 3 weeks at room temperature and 40° C., relative to no dye
Text: (§1) mRNA purity can be determined by reverse phase high-performance liquid chromatography (RP-HPLC) size based separation. This method can be used to assess mRNA integrity by a length-based gradient RP separation and UV detection of RNA at 260 nm. As used herein “main peak” or “main peak purity” refers to the RP-HPLC signal detected from mRNA that corresponds to the full size mRNA molecule loaded within a given LNP formulation. mRNA purity can also be assessed by fragmentation analysis. Fragmentation analysis (FA) is a method by which nucleic acid (e.g., mRNA) fragments can be analyzed by capillary electrophoresis. Fragmentation analysis involves sizing and quantifying nucleic acids (e.g., mRNA), for example by using an intercalating dye coupled with an LED light source. Such analysis may be completed, for example, with a Fragment Analyzer from Advanced Analytical Technologies, Inc.
A study was performed to compare the effects of thionine, a phenothiazinium dye that permeates LNPs, with methylene blue which permeates LNPs to a lesser extent. A series of mRNA-LNP samples were prepared containing incremental levels of each dye as detailed in Table 1. These samples were incubated under two temperature conditions of room temperature and 40 C for 3 weeks prior to analysis.

mRNA [3] = assay: ITC of dye-mRNA interaction; format: binding
mRNA [4] = assay: DLS of methylene blue-mRNA interaction; format: physicochemical; details: methylene blue concentrations in the 10 μM range; data not shown
Text: The images in FIG. 22 show the effect of thionine on mRNA-LNPs. […] The significant protection against fragmentation and adduct formation conferred by the compounds disclosed herein may be based on this effect on nucleic acid conformational state.

[5] = system: mRNA within LNP compositions; assay: mRNA integrity by fragmentation analysis after 10 days at 5, 25 or 40° C. with methylene blue; format: physicochemical; details: for mRNA stability by fragmentation analysis: 0.1-6 mM methylene blue
Text: as §1
In view of the surprising and somewhat counter-intuitive finding that methylene blue enhanced stability of mRNA-LNP formulations, additional experimentation was conducted. The stability of mRNA-LNPs in the presence of increasing levels of methylene blue was investigated upon incubation at 5° C., 25° C. or 40° C. for 10 days. […] In addition to chemical stability, a careful examination of the possible impact of methylene blue on the physical state of the LNP was performed using dynamic light scattering (DLS). This technique is exquisitely sensitive to tiny changes in hydrodynamic nanoparticle size, especially with respect to the formation of larger aggregates known to be a common physical degradation mode of many LNPs.

mRNA-LNP = assay: DOE study of solution composition with and without methylene blue, main peak purity by RP-HPLC; format: physicochemical; details: 2 mM methylene blue, 40° C. ~1 week
Text: To broadly evaluate the effect of methylene blue under a large number of systematically varied solution conditions, a design of experiment (DOE) approach was utilized.

lyophilized mRNA-LNP = assay: Stability of lyophilized mRNA-LNP with methylene blue (RP-HPLC); format: physicochemical; details: lyophilized mRNA-LNP powder with 1 mM methylene blue, 1 week at 40° C.
Experimental: To evaluate whether methylene blue could have a stabilization effect on lyophilized powder formulations of mRNA-LNP, studies were performed to compare the effect of 1 mM methylene blue on loss of purity of a lyophilized mRNA-LNP. In this experiment methylene blue was added to LNP immediately prior to lyophilization. The resulting powders (shown in FIG. 15) were stored at −80° C., 5° C. or 40° C. with or without methylene blue.

mRNA in LNP formulations = assay: mRNA-LNP purity by RP-HPLC and fragment analysis, 40° C. 12 days, light vs dark; format: physicochemical
Experimental: As detailed in this example, samples are labeled as follows: A=0 mM methylene blue; B=0.5 mM methylene blue; C=1 mM methylene blue; D=1.5 mM methylene blue; and E=2.0 mM methylene blue.
After incubating samples at 40° C. for 12 days, either protected from light or unprotected, fragmentation analysis was conducted to evaluate the presence of lipid-RNA adducts.

Structure (SMILES): CN(C)c1ccc2nc3ccc(N(C)C)cc3[s+]c2c1 [methylene blue]
- Adduct (mRNA-LNP formulations; pH 7, TRIS-sucrose buffer): 17.6%
- Fragmentation (mRNA-LNP formulations; pH 7, TRIS-sucrose buffer): 16.0%
- Main peak (mRNA-LNP formulations; pH 7, TRIS-sucrose buffer): 66.4%
- Adduct (mRNA-LNP formulations; pH 7, phosphate buffer): 23.9%
- Fragmentation (mRNA-LNP formulations; pH 7, phosphate buffer): 17.1%
- Main peak (mRNA-LNP formulations; pH 7, phosphate buffer): 59.1%
- Adduct (mRNA-LNP formulations; pH 7.5, TRIS-sucrose buffer): 16.4%
- Fragmentation (mRNA-LNP formulations; pH 7.5, TRIS-sucrose buffer): 19.5%
- Main peak (mRNA-LNP formulations; pH 7.5, TRIS-sucrose buffer): 64.1%
- Adduct (mRNA-LNP formulations; pH 7.5, phosphate buffer): 22.0%
- Fragmentation (mRNA-LNP formulations; pH 7.5, phosphate buffer): 18.7%
- Main peak (mRNA-LNP formulations; pH 7.5, phosphate buffer): 59.4%
- Adduct (mRNA-LNP formulations; pH 8, TRIS-sucrose buffer): 15.9%
- Fragmentation (mRNA-LNP formulations; pH 8, TRIS-sucrose buffer): 22.9%
- Main peak (mRNA-LNP formulations; pH 8, TRIS-sucrose buffer): 61.2%
- Adduct (mRNA-LNP formulations; pH 8, phosphate buffer): 22.7%
- Fragmentation (mRNA-LNP formulations; pH 8, phosphate buffer): 25.0%
- Main peak (mRNA-LNP formulations; pH 8, phosphate buffer): 52.2%
- Adduct (mRNA-LNP formulations; pH 8.5, TRIS-sucrose buffer): 13.3%
- Fragmentation (mRNA-LNP formulations; pH 8.5, TRIS-sucrose buffer): 32.5%
- Main peak (mRNA-LNP formulations; pH 8.5, TRIS-sucrose buffer): 54.1%
- permeation of lipid nanoparticles and binding to encapsulated mRNA [1]: does not permeate LNPs to the same extent as certain other phenothiazinium dyes
- % main peak purity by fragmentation analysis (mRNA stability) [2]: stabilized it; also recorded: significantly improved mRNA stability relative to the no-dye control
- dissociation constant for the dye-mRNA interaction (ITC) (mRNA [3]): μm dissociation constant
- mRNA hydrodynamic radii (DLS) (mRNA [4]): measurable decrease in mRNA hydrodynamic radii
- mRNA stability by fragmentation analysis ([5]; 5° C.): slight trend in the opposite direction
- methylene blue concentration range at which stabilizing effect reached a maximum ([5]; 40° C., fragmentation analysis): 1.5 to 3.0 mM
- mRNA stability by fragmentation analysis ([5]; room temperature): protective effect
- average purity of the 14 samples (mRNA-LNP; 14 buffer/pH/NaCl conditions): 60±6%
- main peak mRNA purity (range over samples 15-28) (mRNA-LNP; Tris or phosphate buffer pH 7.0-8.5, 0 or 150 mM NaCl, RP-HPLC): 50-70%
- main peak purity (lyophilized mRNA-LNP): 30% and 33%
- mRNA stability by RP-HPLC and fragmentation analysis (mRNA in LNP formulations; 12 days, protected from light, 0.5-2.0 mM methylene blue, vs −80 C controls): enhanced the stability of mRNA in LNP formulations
- mRNA degradation by RP-HPLC and fragmentation analysis (mRNA in LNP formulations; 12 days, unprotected from light, samples B-E (0.5-2.0 mM methylene blue)): more mRNA degradation than samples stored protected from light or those without methylene blue
- adduct formation (mRNA in LNP formulations; protected from light): did not have a detrimental effect on adduct formation
